Laboratory results taken from the NIST ThermoML archive (doi:10.1016/j.tca.2004.09.020).
“And” between values parts separate entries of the source, which are not always exact repeats. Identical values can stand only once.

Assay: isobaric coefficient of expansion
Conditions: Gas, Pressure calorimetry

N#N [nitrogen]
Conditions	isobaric coefficient of expansion
302.9 K, 15 kPa	0.004 1/K
302.9 K, 30 kPa	0.0036 1/K
302.9 K, 39.9 kPa	0.00322 1/K
302.9 K, 60 kPa	0.00262 1/K
302.9 K, 70 kPa	0.00243 1/K
302.9 K, 80 kPa	0.00224 1/K
302.9 K, 89.9 kPa	0.00209 1/K
322.9 K, 13 kPa	0.0036 1/K
322.9 K, 14 kPa	0.0036 1/K
322.9 K, 15 kPa	0.0036 1/K
322.9 K, 16 kPa	0.0036 1/K
322.9 K, 18 kPa	0.0036 1/K
322.9 K, 20 kPa	0.0036 1/K
322.9 K, 30 kPa	0.00333 1/K
322.9 K, 40 kPa	0.00303 1/K
322.9 K, 60 kPa	0.0025 1/K and 0.00251 1/K
322.9 K, 80 kPa	0.00212 1/K
352.6 K, 14 kPa	0.00309 1/K
352.6 K, 30 kPa	0.00297 1/K and 0.00299 1/K
352.6 K, 40 kPa	0.0026 1/K
352.6 K, 50 kPa	0.00252 1/K
352.6 K, 60 kPa	0.00232 1/K
352.6 K, 70 kPa	0.00217 1/K
352.6 K, 80 kPa	0.002 1/K
352.6 K, 90 kPa	0.00186 1/K
422.2 K, 18 kPa	0.00244 1/K
422.2 K, 22 kPa	0.00249 1/K
422.2 K, 24 kPa	0.00248 1/K
422.2 K, 26 kPa	0.00238 1/K
422.2 K, 28 kPa	0.00236 1/K
422.2 K, 30 kPa	0.00236 1/K
422.2 K, 40 kPa	0.00225 1/K
422.2 K, 50 kPa	0.00206 1/K
422.2 K, 60 kPa	0.00194 1/K
422.2 K, 70 kPa	0.00184 1/K
422.2 K, 80 kPa	0.00177 1/K
422.2 K, 90 kPa	0.00165 1/K
